How the values were obtained:
Experiment in all cases: relative viability (nuclei count vs DMSO), 5 days (fraction); higher = more cells survive
TGX 221 + Lapatinib = compound: CC1=CN2C(=O)C=C(N=C2C(=C1)C(C)NC3=CC=CC=C3)N4CCOCC4 [TGX 221] + CS(=O)(=O)CCNCc1ccc(-c2ccc3ncnc(Nc4ccc(OCc5cccc(F)c5)c(Cl)c4)c3c2)o1 [Lapatinib] (partner 2 µM)
Outline: (§1)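 Cells from lung cancer lines were seeded into 1536-well plates and, one day later, dosed by pin tool. Treatments were either a single drug or a fixed dose of an anchor drug with five library-drug doses (not always all listed) in √10 steps. After 5 days, nuclei were stained in a one-step fixation (final 0.05% Triton X-100, 1% formaldehyde, 1 ug/ml Hoechst) and counted on 4× images, and relative viability is the treated-to-vehicle nuclei ratio, as the median of duplicate plates.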

[1] = compound: C1=CC=C(C(=C1)C2=CC=C(C=C2)C3=CSC4=C3C(=C(C(=O)N4)C#N)O)O + C[C@@H](Oc1cc(-c2cnn(C3CCNCC3)c2)cnc1N)c1c(Cl)ccc(F)c1Cl [Crizotinib] (partner 1 µM)
Outline: as §1

[2] = compound: O=C(CCCCCCNC(=O)c1cnc(N(c2ccccc2)c2ccccc2)nc1)NO [Ricolinostat] + Cc1cc(Nc2cc(N3CCN(C)CC3)nc(Sc3ccc(NC(=O)C4CC4)cc3)n2)n[nH]1 [Tozasertib] (partner 0.1 µM)
Outline: as §1

[3] = compound: O=C(CCCCCCNC(=O)c1cnc(N(c2ccccc2)c2ccccc2)nc1)NO [Ricolinostat] + C[C@]1(O)C[C@@H](c2nc(-c3ccc4ccc(-c5ccccc5)nc4c3)c3c(N)nccn32)C1 [Linsitinib] (partner 1 µM)
Outline: as §1

Row | Cell Line | relative viability (TGX 221 + Lapatinib; first compound 0.08 µM) | relative viability (TGX 221 + Lapatinib; first compound 0.253 µM) | relative viability (TGX 221 + Lapatinib; first compound 0.8 µM) | relative viability (TGX 221 + Lapatinib; first compound 2.53 µM) | relative viability (TGX 221 + Lapatinib; first compound 8 µM) | relative viability ([1]; first compound 0.253 µM) | relative viability ([1]; first compound 0.8 µM) | relative viability ([1]; first compound 2.53 µM) | relative viability ([1]; first compound 8 µM) | relative viability ([2]; first compound 0.08 µM) | relative viability ([2]; first compound 0.253 µM) | relative viability ([2]; first compound 0.8 µM) | relative viability ([2]; first compound 2.53 µM) | relative viability ([3]; first compound 0.08 µM) | relative viability ([3]; first compound 0.253 µM) | relative viability ([3]; first compound 0.8 µM) | relative viability ([3]; first compound 2.53 µM) | relative viability ([1]; first compound 0.08 µM)
1 | NCI-H460 | 0.709 | 0.795 | 0.983 | 0.969 | 0.966 | 1.03 | 0.955 | 1.03 | 0.27 | 0.549 | 0.46 | 0.558 | 0.186 | 0.468 | 0.774 | 0.731 | 0.58 | 
2 | EBC-1 | 0.203 | 0.212 | 0.203 | 0.226 | 0.234 | 0.21 | 0.19 | 0.199 | 0.191 |  |  |  |  | 0.737 | 0.713 | 0.911 | 0.328 | 0.202
3 | NCI-H23 | 1.13 | 0.95 | 1.1 | 1.12 | 0.975 | 0.686 | 0.381 | 0.511 | 0.386 | 0.399 | 0.321 | 0.393 | 0.254 | 0.476 | 0.625 | 0.59 | 0.514 | 0.466
4 | NCI-H1437 | 0.904 | 0.722 | 0.773 | 0.72 | 0.711 | 0.989 | 0.883 | 1.01 | 0.765 | 0.341 | 0.4 | 0.367 | 0.315 | 0.805 | 1.03 | 0.98 | 0.647 | 0.699
5 | EKVX | 0.231 | 0.194 | 0.213 | 0.182 | 0.19 | 1.06 | 0.824 | 1.36 | 0.803 | 0.354 | 0.373 |  | 0.384 |  | 1.01 | 0.921 | 1.15 | 0.947
6 | NCI-H1299 | 0.987 | 0.99 | 0.978 | 1.03 | 0.894 | 1.02 | 0.987 | 0.968 | 0.947 |  |  |  |  | 0.984 | 0.898 | 0.959 | 0.74 | 0.878
7 | NCI-H1650 | 0.654 | 0.64 | 0.617 | 0.759 | 0.581 | 1.16 | 0.943 | 1.06 | 0.919 | 0.428 | 0.431 | 0.265 | 0.256 |  |  |  |  | 
8 | HARA | 0.788 | 0.722 | 0.707 | 0.662 | 0.766 | 1.51 | 1.1 | 1.05 | 0.842 | 0.106 | 0.16 | 0.076 | 0.0848 | 0.813 | 0.902 | 0.886 | 0.81 | 
9 | ChaGo-K-1 |  |  |  |  |  | 1.43 | 1.31 | 1.17 | 0.817 | 0.201 | 0.234 | 0.224 | 0.226 |  |  |  |  | 1.06
10 | HCC-366 | 1.02 | 1 | 0.875 | 1.04 | 1.04 | 0.779 | 0.614 | 0.599 | 0.285 | 0.241 | 0.0847 | 0.0896 | 0.0599 | 0.454 | 0.67 | 0.478 | 0.454 | 0.245
11 | SW 900 |  |  |  |  |  |  |  |  |  | 0.596 | 0.509 | 0.393 | 0.459 |  |  |  |  | 
12 | SW 1573 | 1.01 | 1.01 | 1.1 | 0.852 | 1.12 | 0.796 | 0.897 | 0.797 | 0.61 | 0.277 | 0.193 | 0.165 | 0.242 | 0.673 | 0.781 | 0.781 | 0.853 | 0.683
13 | NCI-H1703 | 1.02 | 0.974 | 0.95 | 0.859 | 0.757 | 0.811 | 0.827 | 0.844 | 0.56 |  |  |  |  |  | 0.669 | 0.774 | 0.956 | 0.452
14 | SK-MES-1 | 0.487 | 0.414 | 0.422 | 0.39 | 0.381 | 1.05 | 0.905 | 1.05 | 0.951 | 0.833 | 0.795 | 0.877 | 0.628 | 1.01 | 1.01 | 1.12 | 1.02 | 1.05
15 | NCI-H522 |  |  |  |  |  |  |  |  |  | 0.616 | 0.565 | 0.54 | 0.641 |  |  |  |  | 
16 | NCI-H1623 |  |  |  |  |  |  |  |  |  | 0.489 | 0.462 | 0.477 | 0.424 |  |  |  |  | 
17 | NCI-H1395 | 0.926 | 0.862 | 0.751 | 0.804 | 0.714 |  |  |  |  |  | 0.835 | 0.741 | 0.671 |  | 1.2 | 1.05 | 1.04 | 
18 | NCI-H1648 |  |  |  |  |  |  |  |  |  | 0.273 | 0.536 | 0.366 | 0.237 |  |  |  |  | 
19 | NCI-H1563 | 0.922 | 0.871 | 0.791 | 0.851 | 0.796 | 0.862 | 0.884 | 0.904 | 0.858 |  |  |  |  | 1.19 | 1.12 | 1.08 | 0.982 | 0.736
20 | Calu-6 | 0.929 | 0.916 | 1.04 | 1.17 | 0.962 | 0.967 | 0.726 | 0.863 | 0.635 |  |  |  |  | 0.817 | 0.89 | 0.891 | 0.766 | 0.614
21 | NCI-H441 |  |  |  |  |  | 0.873 | 0.839 | 0.777 | 0.525 |  | 0.69 | 0.561 | 0.474 | 0.478 | 0.62 | 0.624 | 0.396 | 0.738
22 | A549 | 0.939 | 0.914 | 0.966 | 1.04 | 0.748 | 0.998 | 0.688 | 0.885 | 0.55 |  |  |  |  |  | 0.533 | 0.538 | 0.562 | 0.493
23 | LCLC-103H |  |  |  |  |  | 1.17 | 0.967 | 1.18 | 1.02 | 0.443 | 0.401 | 0.393 | 0.337 | 0.925 | 1.06 | 1.09 | 1.11 | 1.09
24 | IA-LM | 0.783 | 0.797 | 0.979 | 1.01 | 0.612 | 0.914 | 0.714 | 0.882 | 0.439 |  |  |  |  | 0.335 | 0.529 | 0.594 | 0.259 | 0.826
